Drawing on ChEMBL document CHEMBL1131350, “Design of novel tripeptides with macrophage migration-enhancing activity” (1998), this text covers MI for 29 compounds.

The nature of test [1]: Macrophage migration-enhancing activity evaluated using rabbit alveolar macrophages at 1E-7M. It is filed as functional, Oryctolagus cuniculus.
The species entered for test [2] is Oryctolagus cuniculus. In words: Macrophage migration-enhancing activity was evaluated using rabbit alveolar macrophages expressed as Migration Index (MI). It is filed as functional.

Molecules are shown by their SMILES. Peptide text beside a SMILES is read from it. * marks the point of attachment. Fmoc = O=C(OCC1c2ccccc2-c2ccccc21)*; Cbz = O=C(OCc1ccccc1)*; Boc = CC(C)(C)OC(=O)*

As for `NC(=O)[C@@H](Cc1c[nH]cn1)NC(=O)[C@H](Cc1ccccc1)NC(=O)[C@H](Cc1ccccc1)NC(=O)OCc1ccccc1`, the MI in test [1] is -1.
As to `NC(=O)[C@H](Cc1c[nH]cn1)NC(=O)[C@H](Cc1ccccc1)NC(=O)[C@@H](Cc1ccccc1)NC(=O)OCc1ccccc1`, in test [1], the MI came to 2.
Consider `NC(=O)[C@H](Cc1c[nH]cn1)NC(=O)[C@H](Cc1ccccc1)NC(=O)[C@H](Cc1ccccc1)NC(=O)OCc1ccccc1`, for which, in test [1], the MI turned out to be 94.
For the compound `NC(=O)C(Cc1c[nH]cn1)NC(=O)[C@@H](Cc1ccccc1)NC(=O)OCc1ccccc1` (some centres undefined), the MI in test [1] turned out to be 18.
For the compound `NC(=O)[C@H](Cc1c[nH]cn1)NC(=O)[C@@H](Cc1ccccc1)NC(=O)[C@H](Cc1ccccc1)NC(=O)OCc1ccccc1`, the MI in test [1] was found to be 0.
Still for that read-out and setting: then `NC(=O)[C@H](Cc1c[nH]cn1)NC(=O)[C@H](Cc1ccccc1)NC(=O)[C@H](Cc1ccccc1)N1C(=O)c2ccccc2C1=O`, with -1.
Consider `Clc1ccc(C2=N[C@H](c3ccccc3)[C@H](c3ccccc3)N2)cc1`, for which, in test [2], the MI came out at 140.
Regarding `CC(=O)N[C@@H](Cc1ccccc1)C(=O)N[C@@H](Cc1ccccc1)C(=O)N[C@@H](Cc1c[nH]cn1)C(N)=O` (Ac-Phe-Phe-His-NH2), the MI in test [1] is 61.
In the case of `CC(C)(C)OC(=O)N[C@@H](Cc1ccccc1)C(=O)N[C@@H](Cc1ccccc1)C(=O)N[C@@H](Cc1c[nH]cn1)C(N)=O` (Boc-Phe-Phe-His-NH2), the MI in test [1] was determined as 96.
On to `C[C@H](NC(=O)OCc1ccccc1)C(=O)N[C@@H](Cc1ccccc1)C(=O)N[C@@H](Cc1c[nH]cn1)C(N)=O` (Cbz-Ala-Phe-His-NH2), for which, in test [1], the MI is on record as 2.
As to `NC(=O)[C@H](Cc1c[nH]cn1)NC(=O)[C@H](Cc1ccccc1)NC(=O)[C@H](Cc1ccccc1)NC(=O)[C@H](Cc1ccccc1)NC(=O)OCc1ccccc1` (Cbz-FFFH-NH2), the MI in test [1] is 15.
As to `NC(=O)[C@H](Cc1ccccc1)NC(=O)[C@H](Cc1ccccc1)NC(=O)[C@H](Cc1c[nH]cn1)NC(=O)OCc1ccccc1` (Cbz-His-Phe-Phe-NH2), in test [1], the MI stood at 1.
On the same count and under the same terms, then `CC(C)C[C@H](NC(=O)OCc1ccccc1)C(=O)N[C@@H](Cc1ccccc1)C(=O)N[C@@H](Cc1c[nH]cn1)C(N)=O` (Cbz-Leu-Phe-His-NH2), with 4; and `NC(=O)[C@H](Cc1ccccc1)NC(=O)[C@H](Cc1c[nH]cn1)NC(=O)[C@H](Cc1ccccc1)NC(=O)OCc1ccccc1` (Cbz-Phe-His-Phe-NH2), with -1.
Turning to `CC(C)C[C@H](NC(=O)[C@H](Cc1ccccc1)NC(=O)OCc1ccccc1)C(=O)N[C@@H](Cc1c[nH]cn1)C(N)=O` (Cbz-Phe-Leu-His-NH2), the MI in test [1] was 4.
On the same count and under the same terms, the result for `N=C(N)NCCC[C@H](NC(=O)[C@H](Cc1ccccc1)NC(=O)[C@H](Cc1ccccc1)NC(=O)OCc1ccccc1)C(N)=O` (Cbz-Phe-Phe-Arg-NH2) reads 8.
As to `CCOC(=O)[C@H](Cc1c[nH]cn1)NC(=O)[C@H](Cc1ccccc1)NC(=O)[C@H](Cc1ccccc1)NC(=O)OCc1ccccc1` (Cbz-Phe-Phe-His-OEt), in test [1], the MI is listed as 95.
As for `O=C(N[C@@H](Cc1ccccc1)C(=O)N[C@@H](Cc1ccccc1)C(=O)N[C@@H](Cc1c[nH]cn1)C(=O)O)OCc1ccccc1` (Cbz-Phe-Phe-His-OH), the MI in test [1] was -6.
Take `COC(=O)[C@H](Cc1c[nH]cn1)NC(=O)[C@H](Cc1ccccc1)NC(=O)[C@H](Cc1ccccc1)NC(=O)OCc1ccccc1` (Cbz-Phe-Phe-His-OMe): the MI in test [1] is listed as 97.
As for `NCCCC[C@H](NC(=O)[C@H](Cc1ccccc1)NC(=O)[C@H](Cc1ccccc1)NC(=O)OCc1ccccc1)C(N)=O` (Cbz-Phe-Phe-Lys-NH2), the MI in test [1] is reported as 3.
`NC(=O)[C@H](Cc1c[nH]cn1)NC(=O)[C@H](Cc1c[nH]c2ccccc12)NC(=O)[C@H](Cc1ccccc1)NC(=O)OCc1ccccc1` (Cbz-Phe-Trp-His-NH2): in test [1], the MI was found to be 7.
Regarding `NC(=O)[C@H](Cc1c[nH]cn1)NC(=O)[C@H](Cc1ccc(O)cc1)NC(=O)[C@H](Cc1ccccc1)NC(=O)OCc1ccccc1` (Cbz-Phe-Tyr-His-NH2), in test [1], the MI is on record as -23.
On the same count and under the same terms, the result for `NC(=O)[C@H](Cc1c[nH]cn1)NC(=O)[C@H](Cc1ccccc1)NC(=O)[C@H](Cc1c[nH]c2ccccc12)NC(=O)OCc1ccccc1` (Cbz-Trp-Phe-His-NH2) reads 14; that for `NC(=O)[C@H](Cc1c[nH]cn1)NC(=O)[C@H](Cc1c[nH]c2ccccc12)NC(=O)[C@H](Cc1c[nH]c2ccccc12)NC(=O)OCc1ccccc1` (Cbz-Trp-Trp-His-NH2), 4; that for `NC(=O)[C@H](Cc1c[nH]cn1)NC(=O)[C@H](Cc1ccccc1)NC(=O)[C@H](Cc1ccc(O)cc1)NC(=O)OCc1ccccc1` (Cbz-Tyr-Phe-His-NH2), -28.
`NC(=O)[C@H](Cc1c[nH]cn1)NC(=O)[C@H](Cc1ccc(O)cc1)NC(=O)[C@H](Cc1ccc(O)cc1)NC(=O)OCc1ccccc1` (Cbz-Tyr-Tyr-His-NH2): the MI in test [1] is -25.
For `CC(C)[C@H](NC(=O)OCc1ccccc1)C(=O)N[C@@H](Cc1ccccc1)C(=O)N[C@@H](Cc1c[nH]cn1)C(N)=O` (Cbz-Val-Phe-His-NH2), the MI in test [1] is on record as 3.
Take `NC(=O)[C@H](Cc1c[nH]cn1)NC(=O)[C@H](Cc1ccccc1)NC(=O)[C@H](Cc1ccccc1)NC(=O)OCC1c2ccccc2-c2ccccc21` (Fmoc-Phe-Phe-His-NH2): the MI in test [1] turned out to be 122.
For `NC(=O)[C@H](Cc1c[nH]cn1)NC(=O)[C@H](Cc1ccccc1)NC(=O)[C@@H](N)Cc1ccccc1` (H-Phe-Phe-His-NH2), in test [1], the MI came out at 7.
